{"source": "patent US20120070476A1", "about": "“Compositions and Methods for Inactivation of Pathogens at Genital Tract Surfaces” (priority 2009, published 2012)", "key": {"[1]": {"tested_on": "Herpes simplex virus type 2 (HSV-2)", "assay": "Inactivation of cell-free HSV-2 by acidified exposure media, titred on Elvis cells", "assay_type": "cell-based", "settings": "0.1% acid, pH 3.8, 30 minutes, 37° C.", "procedure": "The effect of low pH alone, and low pH in the presence of racemic lactic acid, L-lactic acid, and D-lactic acid on the survival of Herpes simplex virus type 2 (HSV-2) was assessed. Cell-free HSV-2 (ATCC VR-734™ strain 9, American Type Culture Collection, Manassas, Va.) was aliquoted, stored at −80° C., and thawed immediately before its use. Elvis™ (Enzyme-linked Virus Inducible System™) cells (Diagnostic Hybrids, Athens Ohio) were supplied growing in flat-bottomed, 96-well microplates. Each plate was kept in a humidified incubator (5% CO2, 37° C.) until the cells were between 75% and 95% confluent. The supplier's original growth medium was replaced with fresh, pre-warmed tissue culture re-feeding medium (Trinity Biotech USA, Jamestown, N.Y.) several hours before the microplate was used in an experiment.\nViral exposure media were prepared by adding 0.1% D,L-lactic acid (Sigma-Aldrich, St. Louis, Mo.), D-lactic acid (Bachem Bioscience Inc., King of Prussia, Pa.), L-lactic acid, (Sigma-Aldrich, St. Louis, Mo.), acetic acid (Sigma-Aldrich) or no acid to 0.9% NaCl in deionized water. The pH of the solutions was measured and adjusted as necessary before, during, and after the experiments using an MI-410 combination pH electrode (Microelectrodes Inc., Bedford, N.H.) to pH 3.8 for all of the organic acid-containing viral exposure media. Two viral exposure media not containing an organic acid were adjusted to pH 3.8 with HCl, or to pH 7.4 with dilute NaOH. Freshly thawed viral stock was diluted 1:10 with viral exposure media and incubated for 30 minutes at 37° C. At the end of the incubation, all media were diluted ten-fold with re-feeding medium to rapidly neutralize the acidity of those media that were acidic. Three-fold serial dilutions were then made with the same growth medium. Each dilution of virus was then inoculated into two replicate wells on a microplate of Elvis™ cells. The microplate was spun at […], 25° C. for 25 minutes and incubated in a humidified incubator (5% CO2, 37° C.) for 16-24 hours. The growth medium was removed from the microplate wells, and the Elvis™ cells were fixed and stained according to the manufacturer's instructions. The microplate wells were examined on an inverted microscope for the presence of blue-stained cells, indicating viral infection."}, "BV-associated organisms": {"tested_on": "BV-associated organisms", "assay": "Survival of BV-associated organisms after 2-hour exposure to racemic lactic acid", "assay_type": "cell-based, Eighteen BV-associated organisms", "settings": "pH 4.5, between 10 and 100 mM (~0.1-1%) lactic acid, 37° C., versus pH 4.5 without lactic acid", "procedure": "(§1) Eighteen BV-associated organisms, and four lactobacillus strains obtained from the American Type Culture Collection, Rockville Md., were grown in appropriate growth medium and incubation conditions, and exposed to a 2-hour further incubation at 37° C. in media at pH 7 without lactic acid, or at pH 4.5 with racemic lactic acid concentrations ranging from zero to 550 mM (5%). The number of organisms surviving exposure to these conditions is plotted in FIG. 4. BV-associated organisms are plotted with solid lines."}, "lactobacilli": {"tested_on": "lactobacilli", "assay": "Survival of lactobacillus strains after 2-hour exposure to lactic acid", "assay_type": "cell-based, four lactobacillus strains", "procedure": "as §1"}, "[2]": {"tested_on": "M. mulieris, M. curtisii, Mycoplasma hominus", "assay": "Inactivation of three BV-associated organisms by L-lactic acid", "assay_type": "cell-based, Mobiluncus mulieris, Mobiluncus curtisii", "settings": "pH 4.5, 2-hour, 37° C.", "procedure": "as §1"}, "[3]": {"tested_on": "Herpes simplex virus type-1 (HSV-1)", "assay": "Inactivation of HSV-1 (KOS strain) by acidified exposure media", "assay_type": "cell-based", "settings": "0.1%, pH 3.8, 30-minute exposure"}}, "data": [{"smiles": "CC(=O)O", "note": "[acetic acid, reference compound]", "values": [{"measurement": "HSV-2 inactivation beyond low pH without organic acids (in words)", "setting": "[1]", "value": "did not increase the degree of inactivation"}]}, {"smiles": "CC(O)C(=O)O", "note": "(racemic) [racemic lactic acid, D,L-lactic acid, reference compound]", "values": [{"measurement": "Inactivation of BV-associated organisms (in words)", "setting": "BV-associated organisms", "value": "dramatically increased"}, {"measurement": "Survival of lactobacilli (in words)", "setting": "lactobacilli; pH 4.5, highest concentration tested (5% or ~550 millimolar), 2-hour, 37° C.", "value": "survived unaltered"}]}, {"smiles": "C[C@@H](O)C(=O)O", "note": "[D-lactic acid, reference compound]", "values": [{"measurement": "HSV-2 inactivation beyond low pH without organic acids (in words)", "setting": "[1]", "value": "further reduced HSV-2 viability"}]}, {"smiles": "C[C@H](O)C(=O)O", "note": "[L-lactic acid]", "values": [{"measurement": "shift of dose-response for cellular cytotoxicity relative to D-lactic acid", "setting": "HeLa cells", "value": "more than 500 fold"}, {"measurement": "HSV-2 inactivation beyond low pH without organic acids (in words)", "setting": "[1]", "value": "further reduced HSV-2 viability"}, {"measurement": "reduction of HSV-2 viability, more than low pH with D-lactic acid", "setting": "[1]", "value": "approximately 5 fold"}, {"measurement": "reduction of HSV-2 viability, more than low pH without lactic acid", "setting": "[1]", "value": "approximately 11 fold"}, {"measurement": "Inactivation of all three organisms at pH 4.5 with L-lactic acid versus pH 4.5 without lactic acid (in words)", "setting": "[2]", "value": "substantially greater"}, {"measurement": "concentration not harmful to lactobacilli", "setting": "lactobacilli; pH 4.5, inferred from 550 mM racemic lactic acid being 50% L-lactic acid", "value": "up to 280 mM"}, {"measurement": "HSV-1 inactivation, greater than D-lactic acid at pH 3.8", "setting": "[3]", "value": "approximately 10 fold"}, {"measurement": "HSV-1 inactivation, more than at pH 3.8 without lactic acid", "setting": "[3]", "value": "~25", "unit": "fold"}, {"measurement": "HSV-1 inactivation, more than the control at pH 7.4 without lactic acid", "setting": "[3]", "value": "approximately 80 fold"}]}]}
